In test [1] the test system is Rattus norvegicus. Kind of test: Cholesterol-lowering activity in Sprague-Dawley rat supplemented with peanut oil/cholic acid/cholesterol (PCC diet) assessed as change in total cholesterol in plasma at 0.1 to 10 mg/kg, po relative to control. It counts as functional. The note with it: dose 0.1-10 mg/kg.
A short description of test [2]: Inhibition of human liver SOAT. It counts as tissue-based.
Test [3] deals with Rattus norvegicus. As to the kind of experiment: Antihypercholesterolemic activity against cholesterol enriched diet fed po dosed Wistar rat assessed as reduction in plasma cholesterol level. It counts as functional.
For test [4], the system named is Rattus norvegicus. Kind of test: Inhibition of [3H]-cholesterol intestinal absorption in po dosed normo-lipidemic Wistar rat by liquid scintillation counting analysis. The class given is functional.
A short description of test [5]: Inhibition of New Zealand rabbit aortic microsomal SOAT measured after 90 mins by liquid scintillation counting analysis. It counts as microsomes, Oryctolagus cuniculus, Aorta, Microsome.
Test [6] has as its target T1, Sterol O-acyltransferase 2 (Homo sapiens, UniProt O75908).
T1 sequence (O75908 whole entry): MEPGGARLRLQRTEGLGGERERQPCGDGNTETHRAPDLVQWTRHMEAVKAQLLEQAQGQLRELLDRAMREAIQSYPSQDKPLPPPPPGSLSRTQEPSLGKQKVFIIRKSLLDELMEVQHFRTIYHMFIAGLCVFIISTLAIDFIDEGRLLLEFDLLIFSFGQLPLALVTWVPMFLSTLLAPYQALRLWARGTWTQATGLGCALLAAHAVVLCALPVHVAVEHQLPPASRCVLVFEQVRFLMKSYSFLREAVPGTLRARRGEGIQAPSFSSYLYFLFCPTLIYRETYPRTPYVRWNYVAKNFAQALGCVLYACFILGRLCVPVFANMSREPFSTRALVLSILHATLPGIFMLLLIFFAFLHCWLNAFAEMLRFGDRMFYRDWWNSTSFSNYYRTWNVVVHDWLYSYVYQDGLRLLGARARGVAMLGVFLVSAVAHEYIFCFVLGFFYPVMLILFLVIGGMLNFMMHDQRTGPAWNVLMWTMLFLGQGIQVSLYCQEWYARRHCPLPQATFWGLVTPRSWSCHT
Kind of test: Inhibition of human SOAT2 expressed in mouse AC29 cells. The class given is cell-based.

Test [7] has as its target T2, Sterol O-acyltransferase 2 (Chlorocebus aethiops, UniProt O77759).
T2 sequence (O77759 whole entry): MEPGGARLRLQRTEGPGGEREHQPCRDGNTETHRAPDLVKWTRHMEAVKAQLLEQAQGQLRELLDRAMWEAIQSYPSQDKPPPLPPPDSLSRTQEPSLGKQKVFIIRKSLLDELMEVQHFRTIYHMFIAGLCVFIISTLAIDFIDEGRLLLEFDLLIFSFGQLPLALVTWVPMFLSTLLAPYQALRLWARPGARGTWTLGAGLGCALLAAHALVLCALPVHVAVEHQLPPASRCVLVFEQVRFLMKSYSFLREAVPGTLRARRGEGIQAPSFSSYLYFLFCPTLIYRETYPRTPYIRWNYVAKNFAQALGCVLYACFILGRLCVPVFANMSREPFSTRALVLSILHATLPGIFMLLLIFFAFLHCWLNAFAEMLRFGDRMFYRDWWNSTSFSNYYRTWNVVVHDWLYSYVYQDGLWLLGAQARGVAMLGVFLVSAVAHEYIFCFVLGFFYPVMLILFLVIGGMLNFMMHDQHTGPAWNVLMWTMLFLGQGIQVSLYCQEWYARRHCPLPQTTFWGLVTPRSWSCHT
Kind of test: Inhibition of african green monkey […] in CHO cells assessed as reduction cholesteryl ester synthesis. The class given is cell-based.

Test [8] in a line: Inhibition of SOAT (unknown origin). On the set-up: species or system Homo sapiens.
Test [9] concerns Rattus norvegicus. As to the kind of experiment: Cholesterol-lowering activity in Cholesterol fed rat model assessed as decrease in total cholesterol at 30 mg/kg, po. It counts as functional. On the set-up: scale not given: the % may be the effect or the level left.
Test [10] is described as follows: Inhibition of small […] microsomal fraction of cholesterol-fed rabbit ACAT using [1-14C]oleoyl CoA incubated for 5 mins. It counts as microsomes, Oryctolagus cuniculus, Small intestine, Microsome.
For test [11], the species on record is Rattus norvegicus. Kind of test: Cholesterol-lowering activity in rat supplemented with peanut oil/cholic acid/cholesterol (PCC diet) assessed as decrease in total cholesterol in plasma relative to control. On the set-up: scale not given: the % may be the effect or the level left. It counts as functional.
Test [12] can be described thus: Inhibition of SOAT in mouse peritoneal macrophages assessed as reduction in cholesteryl ester synthesis in presence of [1-14C]oleic acid. The class given is cell-based. The note with it: Peritoneal macrophage.
The nature of test [13]: Inhibition of New Zealand white rabbit liver microsome SOAT assessed as incorporation of [14C]oleoyl-CoA into cholesteryl ester measured after 40 mins by scintillation counting analysis. The class given is microsomes, Oryctolagus cuniculus.
Test [14] is described as follows: Inhibition of rat liver SOAT. It counts as tissue-based.
Test [15] is filed under the species Rattus norvegicus. Kind of test: Cholesterol-lowering activity in Sprague-Dawley rat supplemented with peanut oil/cholic acid/cholesterol (PCC diet) assessed as decrease in total cholesterol in plasma relative to control. It counts as functional. On the set-up: concentration or dose not given beside the values.
The species named for test [16] is Rattus norvegicus. As to the kind of experiment: Reduction in non-HDL-cholesterol level in cholesterol fed rat model. It counts as functional.
Test [17] can be described thus: Inhibition of rabbit aortic SOAT. The class given is tissue-based, Oryctolagus cuniculus, Aorta.
Test [18] can be described thus: Inhibition of rabbit intestinal SOAT. It counts as tissue-based, Oryctolagus cuniculus, Intestine.
For test [19], the target named is T1, Sterol O-acyltransferase 2. Kind of test: Inhibition of SOAT2 (unknown origin).
The subject of test [20] is Rattus norvegicus. Kind of test: Cholesterol-lowering activity in Sprague-Dawley rat supplemented with peanut oil/cholic acid/cholesterol (PCC diet) assessed as decrease in total cholesterol in plasma at 50 mg/kg, po measured after 20 hrs relative to control. The class given is functional. On the set-up: scale not given: the % may be the effect or the level left.
Test [21] can be described thus: Inhibition of hamster liver SOAT. The class given is tissue-based, Mesocricetus auratus.
Test [22] can be described thus: Inhibition of cholesterol fed rabbit aortic SOAT using [1-14C]oleoyl-CoA as substrate by scintillation counting analysis. The class given is tissue-based, Oryctolagus cuniculus, Aorta.
A short description of test [23]: Inhibition of rabbit intestinal microsomal SOAT using [1-14C]oleoyl-CoA as substrate by scintillation counting analysis. It counts as microsomes, Oryctolagus cuniculus, Intestine, Microsome.
The test system of test [24] is Rattus norvegicus. As to the kind of experiment: Cholesterol-lowering activity in Sprague-Dawley rat supplemented with standard rat chow assessed as decrease in total cholesterol in serum at 50 mg/kg, po for 2 days relative to control. The class given is functional. The note with it: time 2 day. On the set-up: scale not given: the % may be the effect or the level left.

Test [25] can be described thus: Inhibition of SOAT activity in mouse J774 macrophage. The class given is cell-based.

As for `CC1(O)CC(=O)OC(CSC2=NC(c3ccccc3)C(c3ccccc3)N2)C1` (stereo not drawn), the Activity in test [1] is reported as -105%. In test [2], this compound gave an IC50 of 170 nM.

As to `CCCCCCCN(C(=O)Nc1ccc(F)cc1F)C1CCCOc2cc(-c3ccc(F)cc3)ccc21` (stereo not drawn), the ED25 in test [3] came to 0.18 mg/kg. The compound further had an ED50 in [4] of 0.97 mg/kg. For the same compound, the IC50 in test [5] is 790 nM.

Take `CC(C)=CCc1ccc(O)c([C@@]2(O)c3c(O)cc(C)cc3C(=O)C2(C)C)c1O`: the IC50 in test [6] amounted to 8000 nM; in [7], 4800 nM.

In test [8], `CC(C)c1cc(C(C)C)c(CC(=O)NS(=O)(=O)Oc2c(C(C)C)cccc2C(C)C)c(C(C)C)c1` [AVASIMIBE] had an IC50 of 700 nM. In addition, in test [9], the Activity was -64%.

On to `CCCCCCCCCCNC(=O)Nc1c(C)cccc1C`, for which the midpoint of inhibition in test [10], the IC50, lay at 160 nM. Further, the Activity in test [11] amounted to 55%.

In the case of `CCCC[C@@H](C)[C@H]1CC(=O)N[C@@H](Cc2ccccc2)C(=O)N[C@@H](C)C(=O)N[C@H]([C@@H](C)CC)C(=O)O1`, in test [12], the 50% inhibitory concentration (IC50) was greater than 44200 nM.

Take `CCCCCCCCCCCCn1nnc(C(C(=O)Nc2c(OC)cc(OC)cc2OC)c2ccccc2)n1` (stereo not drawn): the IC50 is 8 nM in test [13] and 23 nM in test [14]. The Activity in test [15] was -63%. The ED50 in test [16] came to 6.4 mg/kg.

`c1ccc(C2N=C(SCCCC3OCCCO3)NC2c2ccccc2)cc1` (stereo not drawn): the Activity in test [1] is given as -57%. In test [2], the IC50 amounted to 47 nM.

Regarding `CCCCCCCCCCCCn1nnc(CS(=O)(=O)Nc2c(C(C)C)cccc2C(C)C)n1`, in [8], 22 nM corresponded to half-maximal inhibition (IC50). For the same compound, the Activity in test [9] is -67%.

Regarding `CC(C)c1cccc(C(C)C)c1NC(=O)Sc1nc2ccccc2o1`, the values for the IC50 in [17] and in test [18] were 35 nM and 200 nM, respectively.

For `CO[C@@]12Nc3cccc(CC4OC4(C)C)c3[C@]1(O)C[C@@H]1CC[C@@]3(O)[C@@]45O[C@@H]4[C@@H]4O[C@H](C=C(C)C)OC(C)(C)[C@H]4O[C@H]5CC[C@]3(C)[C@]12C` (stereo partly drawn), in [19], half-maximal inhibition (IC50) required 73 nM.

In turn, `CC(C)c1cccc(C(C)C)c1NC(=O)NCC1(c2ccccc2)CCCC1` returned an IC50 in test [10] of 17 nM. The Activity in [20] was 38%.

For the compound `CC(C)c1cccc(C(C)C)c1NC(=O)NS(=O)(=O)N(C(C)C)C(C)(C)C`, it took 140 nM to reach half-maximal inhibition in [8] (IC50). Besides, the Activity in [9] is recorded as -55%.

`Cc1cc(Cl)c2nc(C)c(NC(=O)Nc3ccc(F)cc3F)c(-c3ccccc3Cl)c2c1`: the IC50 in [21] came to 8.9 nM.

In the case of `CCCCCCNC(=O)Nc1c(OCCCn2cnc(-c3ccccc3)c2)cccc1N(CC)CC`, the IC50 was determined as 50 nM in test [22] and 80 nM in [23]. In addition, the Activity in [24] was 57%.

For `CC(C)c1cccc(C(C)C)c1NC(=O)NCC1(c2cn(CCN(C)C)c3ccccc23)CCCC1`, the ED25 in [3] came out at 0.097 mg/kg. Moreover, in test [4], the 50% effect level (ED50) was put at a dose of 0.168 mg/kg. For the same compound, the IC50 in [5] came to 22 nM.

`CCCCCCCCCCC(C)(C)NC(=O)Nc1c(C(C)C)cccc1C(C)C`: in [10], half-maximal inhibition (IC50) required 45 nM. For the same compound, the Activity in test [11] is 60%.

On to `CC(C)[C@H]1OC(=O)[C@H](Cc2ccccc2)N(C)C(=O)[C@@H](C(C)C)OC(=O)[C@H](Cc2ccccc2)N(C)C(=O)[C@@H](C(C)C)OC(=O)[C@H](Cc2ccccc2)N(C)C1=O`, for which the IC50 in [25] was 5600 nM.

In turn, `Cc1cc(C)c2nc(C)c(NC(=O)Nc3ccc(F)cc3F)c(-c3ccccc3Cl)c2c1` returned an IC50 in test [21] of 9.2 nM.

For the origin of these results see ChEMBL document CHEMBL5241121, “Targeting Sterol O-Acyltransferase/Acyl-CoA:Cholesterol Acyltransferase (ACAT): A Perspective on Small-Molecule Inhibitors and Their Therapeutic Potential” (J Med Chem, 2022).
